The record followed here is ChEMBL document CHEMBL5260795, “Antifungal potential of marine natural products” (Eur J Med Chem, 2017).

Values after ≈ are worked out from the molar mass of the structure shown.

For one assay, the system named is Fusarium graminearum. In words: Antimicrobial activity against Fusarium graminearum. It is filed as functional.
Assay [1] deals with Candida albicans. Briefly: Antimicrobial activity against Candida albicans assessed as inhibition of fungal growth. It is filed as functional.
The subject of assay [2] is Trichophyton rubrum. Briefly: Antifungal activity against Trichophyton rubrum. It is filed as functional.
For assay [3], the system named is Kluyveromyces marxianus. In words: Antifungal activity against Candida pseudotropicalis. The format is functional.
In assay [4] the test system is Nannizzia gypsea. Briefly: Antifungal activity against Microsporum gypseum. It is filed as functional.
A further assay has as its system Paradendryphiella salina. In words: Antifungal activity against Dendry-phiella salina. It is filed as functional, organism-based.
In assay [5] the test system is Candida albicans. In words: Antifungal activity against amphotericin-B-resistant Candida albicans. It is filed as functional, organism-based.
For the next assay, the system named is Lindra thalassiae. Briefly: Antifungal activity against Lindra thalassiae. It is filed as functional, organism-based. The settings on record: Lindriella thalassiae.
Assay [6] concerns Candida albicans. Briefly: Antifungal activity against wild type Candida albicans. It is filed as functional, organism-based.
Another assay deals with Aspergillus. Briefly: Antimicrobial activity against Aspergillus. It is filed as functional.
A further assay relates to Aspergillus niger. Briefly: Antifungal activity against Aspergillus niger. The format is functional.
In assay [7] the test system is Candida tropicalis. In words: Antifungal activity against Candida tropicalis. It is filed as functional.
For the next assay, the system named is Fusarium oxysporum. Briefly: Antifungal activity against Fusarium oxysporum. The format is functional.
Assay [8] has as its system Candida albicans. Briefly: Antimicrobial activity against Candida albicans assessed as reduction of microbial microbial growth. It is filed as functional.
In assay [9] the test system is Candida albicans. In words: Antimicrobial activity against Candida albicans assessed as inhibition of microbial growth. The format is functional.
Assay [10] relates to Candida tropicalis. Briefly: Antimicrobial activity against amphotericin-B-resistant Candida tropicalis. The format is functional.
Assay [11] has as its system Cryptococcus neoformans. Briefly: Antimicrobial activity against Cryptococcus neoformans. It is filed as functional.
Assay [12] concerns Candida tropicalis. In words: Antimicrobial activity against nystatin-resistant Candida tropicalis. It is filed as functional.
For assay [13], the system named is Nannizzia gypsea. In words: Antifungal activity against Microsporum gypseum ATCC31388 by atomatic microplate reader analysis. It is filed as functional.
For assay [14], the system named is Kluyveromyces marxianus. In words: Antifungal activity against clinical strain Candida pseudotropicalis by atomatic microplate reader analysis. It is filed as functional.
In the next assay the test system is Candida parapsilosis. Briefly: Antifungal activity against clinical strain Candida parapsilosis by atomatic microplate reader analysis. The settings on record: Lodderomyces parapsilosis. It is filed as functional.
The subject of assay [15] is Candida albicans. Briefly: Antifungal activity against Candida albicans ATCC76615 by atomatic microplate reader analysis. It is filed as functional.
Assay [16] deals with Trichophyton rubrum. Briefly: Antimicrobial activity against Trichophyton rubrum. It is filed as functional, organism-based.
Assay [17] has as its system Candida albicans. Briefly: Antifungal activity against Candida albicans. It is filed as functional, organism-based.
The subject of assay [18] is Candida albicans. In words: Antifungal activity against amphotericin-B-resistant Candida albicans assessed as zone of inhibition 1 ug/disk. The format is functional. The conditions noted are these: dose 1 µg.
The subject of assay [19] is Cryptococcus neoformans. In words: Antifungal activity against Cryptococcus neoformans assessed as fungal growth inhibition. It is filed as functional.
The subject of a further assay is Cladosporium cucumerinum. Briefly: Antifungal activity against Cladosporium cucumerinum assessed as zone of inhibition. It is filed as functional.
The test system of assay [20] is Cryptococcus neoformans. In words: Antifungal activity against Cryptococcus neoformans var. grubii assessed as fungal growth inhibition. The format is functional.

`CC(C)C1=C2N=C3OC=CC=C[C@@]34OC[C@H]3O[C@@]4(OC3(C)C)N2[C@@H](Cc2ccccc2)C(=O)N1` gave an MIC against Fusarium graminearum of 4 µg/mL (≈ 8.63 µM).

Consider `C=C(C)CCC[C@]1(C)OC(=O)[C@]23[C@@H](O)C=C4[C@@H](CC[C@H]5C(C)(C)[C@@H](O[C@@H]6OC[C@@H](OS(=O)(=O)[O-])[C@H](O)[C@H]6O[C@@H]6O[C@H](C)[C@@H](O[C@@H]7O[C@H](CO)[C@@H](O)[C@H](O[C@@H]8O[C@H](CO)[C@@H](O)[C@H](OC)[C@H]8O)[C@H]7O)[C@H](O)[C@H]6O)CC[C@]45C)[C@]2(C)CC[C@@]31O.[Na+]`, for which the MIC in the assay on Candida albicans [1], against Trichophyton rubrum [2], in the assay with Kluyveromyces marxianus [3] and in the assay with Nannizzia gypsea [4] was 1 µg/mL each time.

Turning to `CO[C@H]1C[C@H](CC[C@H](C)[C@H](O)[C@H](C)[C@H]2OC(=O)/C=C/C(C)=C/[C@@H](O)[C@H](OC)C[C@@H]3C=CC[C@@H](C[C@@H](OC)[C@@]4(CO4)[C@@H](OC)C[C@@H](OC)[C@@H]2C)O3)O[C@@H](C)C1`, the IC50 with Paradendryphiella salina worked out at 0.034 µg/mL (≈ 0.0443 µM); with Candida albicans [5], 0.5 µg/mL (≈ 0.652 µM); with Lindra thalassiae it was 0.135 µg/mL (≈ 0.176 µM); in the assay with Candida albicans [6], 1.3 µg/mL (≈ 1.69 µM).

In the assay on Aspergillus, `COc1c(Br)cc(Br)cc1Oc1c(O)cc(Br)cc1Br` showed an MIC of 1.95 µg/mL (≈ 3.67 µM).

For the compound `C/C(=C\[C@@H](O)C/C(C)=C/CCc1ccoc1)C/C=C/c1ccoc1`, the MIC was 2 µg/mL (≈ 6.13 µM) in the assay on Aspergillus niger, 2 µg/mL (≈ 6.13 µM) in the assay with Candida tropicalis [7], 1 µg/mL (≈ 3.06 µM) in the assay with Fusarium oxysporum and 0.25 µg/mL in the assay with Candida albicans [8].

`CCCCCCCCC(O)C(O)CC/C=C\CCCCCC(O)C(N)CO` (stereo not drawn): the MIC came to 0.4 µg/mL in the assay on Candida albicans [9], 0.4 µg/mL (≈ 1.03 µM) in the assay with Candida tropicalis [10], 0.2 µg/mL (≈ 0.516 µM) against Cryptococcus neoformans [11] and 0.4 µg/mL (≈ 1.03 µM) in the assay with Candida tropicalis [12].

Turning to `CO[C@@H]1[C@@H](O)[C@H](O[C@@H]2[C@H](O)[C@H](O[C@H]3[C@H](O)[C@@H](O)[C@H](O[C@H]4[C@H](OC5CC[C@]6(C)C7=C(CC[C@H]6C5(C)C)[C@]5(C)CC[C@H]6[C@]5(CC7)C(=O)O[C@@]6(C)C[C@H](O)CC(C)C)OC[C@@H](O[C@@H]5O[C@H](CO)[C@@H](O)[C@H](O)[C@H]5O)[C@@H]4O)O[C@@H]3CO)OC[C@H]2O)O[C@H](CO)[C@H]1O` (stereo partly drawn), the MIC against Nannizzia gypsea [13], against Kluyveromyces marxianus [14], with Candida parapsilosis and against Candida albicans [15] was 3.4 µg/mL (≈ 2.75 µM) in each case.

Turning to `C=C[C@@H]1C[C@H](C)C[C@H](C)[C@H]1c1c(O)ccn(O)c1=O`, the IC50 came to 1.07 µg/mL (≈ 4.06 µM) with Trichophyton rubrum [16] and 6.9 µg/mL (≈ 26.2 µM) in the assay with Candida albicans [17].

Take `CCC(C)CC(C)[C@@H](O)[C@@H](C)C(=O)N[C@H](CN)C(=O)N[C@@H]([C@H](O)[C@H](O)C(=O)N[C@H](C(=O)N[C@H]1C(=O)N[C@H]([C@@H](C)O)C(=O)N[C@H](CCCN)C(=O)N[C@@H](CC(C)C)C(=O)N(C)[C@@H](CCC(N)=O)C(=O)NC(C(OC)C(N)=O)C(=O)N[C@H](CC(N)=O)C(=O)N(C)[C@@H](CC(C)C)C(=O)O[C@@H]1C)[C@@H](C)C(C)C(N)=O)C(C)(C)O` (stereo partly drawn): the “inhibition zone (IZ)” value in the assay on Candida albicans [18] amounted to 8 mm.

Regarding `CCCCC(C)C/C(=C/[C@@]1(CC)OC(=O)C[C@@H]1O)CC` (stereo partly drawn) [SIMPLEXOLIDE E], the MIC in the assay on Cryptococcus neoformans [19] stood at 3.66 µg/mL (≈ 13 µM).

As to `CO[C@@H]1[C@@H](O)[C@H](O[C@@H]2[C@@H](O)[C@H](O[C@H]3[C@H](O)[C@@H](O)[C@H](O[C@H]4[C@H](O[C@H]5CC[C@]6(C)C7C[C@H](O)[C@]89C(=O)O[C@@](C)(CCCC(C)C)[C@@]8(O)CC[C@@]9(C)C7=CC[C@H]6C5(C)C)OC[C@@H](OS(=O)(=O)[O-])[C@@H]4O)O[C@@H]3C)O[C@H](COS(=O)(=O)[O-])[C@H]2O)O[C@H](CO)[C@H]1O.[Na+].[Na+]` (stereo partly drawn), in the assay with Cladosporium cucumerinum, the “inhibition zone (IZ)” value stood at 8 mm.

For `COC(=O)CCC[C@@H]1CC[C@@H](C#C/C=C/CCCCCC/C=C/Br)O1`, in the assay on Cryptococcus neoformans [20], the MIC amounted to 4 µg/mL (≈ 9.72 µM).

Usually MIC stands for the smallest concentration in the dilution series that meets the test's criterion for growth inhibition. A word on the IC50: it is the point on the concentration scale where inhibition reaches its midpoint. Read a high IC50 as weaker potency.
